Source: patent US5498695A, “Paranitroaniline peptides” (Pfizer Inc., priority 1994, dated 1996)
Where a SMILES comes first, the peptide text is derived from it. Where no end group is shown, it is not given here. The star is where a group is joined. pNA = O=[N+]([O-])c1ccc(N*)cc1; Cbz = O=C(OCc1ccccc1)*; Boc = CC(C)(C)OC(=O)*

Assays:
[1] = molecular target: T1, interleukin 1β converting enzyme (ICE) (Homo sapiens, UniProt P29466); assay: Spectrophotometric hydrolysis of pNA substrates by immobilized ICE (release of pNA at 405 nM); type: biochemical; conditions: 25° C.; for Increase In Absorbence Rates (mOD/min), first value: first of two rate values printed; for Increase In Absorbence Rates (mOD/min), first value / Increase In Absorbence Rates (mOD/min), second value: pH 7, 405 nM, condition that separates the two values not given; for Vmax (Rates) mOD/min: pNA substrate 0.01 to 1.5 mM, pH 7; for Increase In Absorbence Rates (mOD/min), second value: second of two rate values
T1 construct: ICE activity was purified from THP-1 cell lysates by three chromatographic steps; endogenous in cells; host or cells: THP-1 (ATCC-TIB 202) human monocyte cell line; Lysate was purified over G25, Q-Sepharose and MonoQ, then captured on protein A agarose beads carrying anti-ICE antibody
T1 sequence (P29466 120-297 limits assumed): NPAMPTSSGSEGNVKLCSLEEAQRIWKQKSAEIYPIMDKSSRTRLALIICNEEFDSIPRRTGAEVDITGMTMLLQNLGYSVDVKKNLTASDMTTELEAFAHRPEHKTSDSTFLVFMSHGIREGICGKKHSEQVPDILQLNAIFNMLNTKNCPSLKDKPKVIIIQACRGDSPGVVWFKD
T1 sequence (P29466 317-404 limits assumed): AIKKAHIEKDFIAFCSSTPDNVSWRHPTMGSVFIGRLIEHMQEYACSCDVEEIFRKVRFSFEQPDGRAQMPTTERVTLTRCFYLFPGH
Experimental: (§1) Other procedures for purification and assaying ICE are disclosed in Black et al., FEBS Letters, 247, 386-390 (1989), and Thornberry et al., Nature, 356, 768-774 (1992). Cell Culture And Lysates.
(§2) Human monocyte cell line, THP-1 (ATCC-TIB 202) was grown in RPMI media 1640 (Gibco BRL Gaithersburg, Md. 20877) with 10% fetal bovine serum, harvested by centrifugation, washed twice in Dulbecco's PBS […] without Ca^++, and resuspended in 10 mM Tris-HCl pH 8 buffer containing 5 mM DTT (dithiothreitol), 1 mM EDTA (ethylene diamine tetraacetic acid), 1 mM PMSF (phenylmethyl sulfonylfluoride), 1 μg/ml pepstatin, and 1 μg/ml leupeptin at 1-3×10^8 cells per ml. Cells were frozen at -70° C. until use and then lysed by thawing. Lysates were cleared by centrifugation at 20,000× g for 1 hour followed by 120,000×g for 1 hour.
(§3) ICE activity was purified from THP-1 cell lysates by three chromatographic steps: (A) Thp-1 cell lysate (1.5L) was desalted by G25 column chromatography (Pharmacia LKB Biotechnology) (B) The protein fraction was then subjected to ion-exchange chromatography on Q-Sepharose Fast Flow (Pharmacia LKB Biotechnology) in buffer A (20 mM Tris pH 7.8 containing 5 mM EDTA, 1 mM PMSF, 1 μg/ml pepstatin, and 1 μg/ml leupeptin). ICE activity was eluted with a gradient of NaCl in buffer A. (C) The active fractions from B were desalted, concentrated and subjected to MonoQ (trademark) (Pharmacia LKB Biotechnology) column chromatography. ICE activity was then eluted in a NaCl gradient. Active ICE fractions from C were pooled and used to bind immunoaffinity beads containing covalently linked antibodies raised against the first […] N-terminal residues of ICE (NH2 -Asp-Pro-Ala-Met-Pro-Thr-Ser-Ser-Val-Lys-Leu-Cys(SEQ ID NO:2)-CONH2).
Immobilization of ICE to immunoaffinity beads was done following standard protocols. Briefly, IgG fractions were covalently linked to protein A beads as described by the manufacturers (Antibody Orientation Kit Protein A Agarose supplied by Affinica (trademark) (Product manufactured by Schleicher and Schuell)). Protein A beads were pelleted by centrifugation and washed with 5 times their volume with Affinica (trademark) supplied "binding buffer". IgG, appropriately diluted in "binding buffer," was then bound to the beads. The beads were then washed and the bound IgG was covalently linked with dimethyl suberimidate. After the reaction was stopped with the "quenching buffer" supplied by Affinica (trademark), the immunoaffinity beads were washed and stored in PBS buffer containing 0.02% NAN3. To bind the immunoaffinity beads with MonoQ purified ICE preparations, the beads were washed in 10 mM Tris HCL buffer pH 7.8 containing 5 mM DDT, 1 mM EDTA-NA, 1 ug/ml peptstatin, 1 ug/ml leupeptin and 10% glycerol ("washing buffer"). After the wash, the beads were mixed with ICE in the presence of 10% DMSO final concentration. The suspension was rotated slowly for 1 hour at room temperature. Subsequently, the beads were thoroughly washed with the "washing buffer" before they were used and resuspended in an equal volume of this buffer in the enzymatic assay.
The enzymatic reaction was carried out at 25° C. in 96 microtiter wells (100 μl final volume) with active enzyme immobilized to anti-ICE antibodies covalently linked to protein A beads as described above. The incubation mixtures for the enzymatic assays contained 0.01 to 1.5 mM of the pNA substrates and was made up in 8.35 mM MES, 4.17 mM Tris, 4.17 mM acetic acid, […] DMSO, 0.8 mM EDTA and 4.17 mM DTT (final concentrations)adjusted to a final pH of 7.
The enzymatic reaction was monitored spectrophotometrically at […]. The increase in absorbance at this wave length resulted from the release of pNA chromophore after hydrolysis by ICE of the peptidic-pNA substrate. The release of the chormophore was linear with reaction time and the rates observed were proportional to ICE and substrate concentration. […]

[2] = molecular target: T1, interleukin 1β converting enzyme (ICE); assay: Inhibition of ICE hydrolysis of CBZ-Val-Ala-Asp-pNA; type: biochemical; conditions: for Ki: substrate CBZ-Val-Ala-Asp-pNA
Experimental: as §1, §2, §3
Immobilization of ICE to immunoaffinity beads was done following standard protocols. […]
The enzymatic reaction was monitored spectrophotometrically at […]. The increase in absorbance at this wave length resulted from the release of pNA chromophore after hydrolysis by ICE of the peptidic-pNA substrate. […]

Compound	type of inhibition ([2]; hydrolysis of CBZ-Val-Ala-Asp-pNA, affecting Km but not Vmax)	Ki [2] [µM]	Increase In Absorbence Rates (mOD/min), first value [1] [mOD/min]	Vmax (Rates) mOD/min [1] [mOD/min]	Increase In Absorbence Rates (mOD/min), second value [1] [mOD/min]
CC(=O)N[C@@H](Cc1ccc(O)cc1)C(=O)N[C@H](C(=O)N[C@@H](C)C(=O)N[C@@H](CC(=O)O)C(=O)Nc1ccc([N+](=O)[O-])cc1)C(C)C [Example 1, Ac-TyrValAlaAsp (SEQ ID NO:1)-p-nitroanilide]			0.21	0.27	0.17
CC(C)[C@H](NC(=O)OC(C)(C)C)C(=O)N[C@@H](C)C(=O)N[C@@H](CC(=O)O)C(=O)Nc1ccc([N+](=O)[O-])cc1 [Example 4, t-BOCValAlaAsp-p-nitroanilide] (Boc-Val-Ala-Asp-pNA)			0.17	0.24	0.10
CC(=O)N[C@H](C(=O)N[C@@H](C)C(=O)N[C@@H](CC(=O)O)C(=O)Nc1ccc([N+](=O)[O-])cc1)C(C)C [Example 5, AcValAlaAsp-p-nitroanilide] (Ac-Val-Ala-Asp-pNA)			0.15	0.25	0.08
CC(C)[C@H](NC(=O)OCc1ccccc1)C(=O)N[C@@H](C)C(=O)N[C@@H](CC(=O)O)C(=O)Nc1ccc([N+](=O)[O-])cc1 [Example 6, CBZValAlaAsp-p-nitroanilide] (Cbz-Val-Ala-Asp-pNA)			0.18	0.21	0.16

More lines, main results first:

type of inhibition ([2]; hydrolysis of CBZ-Val-Ala-Asp-pNA, affecting Km but not Vmax)	Ki [2] [µM]	Compound	Increase In Absorbence Rates (mOD/min), first value [1] [mOD/min]	Vmax (Rates) mOD/min [1] [mOD/min]	Increase In Absorbence Rates (mOD/min), second value [1] [mOD/min]
competitive inhibitors	1600	Ac-YVHDA-NH2 [p48, Ac-Tyr-Val-His-Asp-Ala(SEQ ID NO:4)-NH2]			
	460	H-NEAYVHDAPVRSLN [p70, H-Asn-Glu-Ala-Tyr-Val-His-Asp-Ala-Pro-Val-Arg-Ser-Leu-Asn]			
